The values that follow come from PubChem BioAssay AID2253 (Southern Research Specialized Biocontainment Screening …, 2010).

A word on the EC50: it is the concentration giving half of the maximal effect.

This test concerns THP-1 viability, CellTiter-Glo luminescence, 72 h. The experiment in a line: human monocytic cell viability reduction – S. typhimurium screen hits, cytotoxicity control for Salmonella PhoP regulon inhibitors, dose response (AID 2253).

As for `Nc1nc2ccccc2n1Cc1ccc(Cl)c(Cl)c1`, the EC50 is 24.4 µM. The same measure for `O=CN/N=C/c1c(O)ccc2ccccc12`: 5.18 µM. The same measure for `Cc1cc(C2=NNC(=NC3CC3)SC2)c(C)n1Cc1ccco1`: 5.69 µM; for `Oc1ccc(Cl)cc1Cc1cc(Cl)ccc1O`: 19.6 µM.

For the compound `COc1ccc(/C=N/Nc2cc(C)nc3c(C)cccc23)cc1`, the EC50 was 7.25 µM. For the compound `CCCCCCCSc1cc(OC)c(CCNC)cc1OC`, the EC50 was 6.34 µM. To `CCCCC1(CCCC)C(=O)NC(=Nc2cccc(C)c2)NC1=O` belongs 39.1 µM. The same measure for `NC1=NC[C@@H](Cc2ccc(O)cc2)N1CCCCC1CCCCC1`: 5.45 µM; for `CCCCCOc1ccc(Br)cc1CSC(=N)N`: 1.86 µM.

With `COc1ccc(Nc2ccc3c(c2)=NC2(CCCCC2)[N+]=3[O-])cc1`, the EC50 is 4.59 µM. To `CN(c1cccc(Cl)c1)S(=O)(=O)c1cccc(C(=O)Nc2nc3ccccc3[nH]2)c1` belongs 13.3 µM.

As for `O=C(Nc1ccccc1)Nc1ccc(Cl)c([N+](=O)[O-])c1`, the EC50 was 14.2 µM. The same measure for `Cc1[nH]c2ccccc2c1C1=NNC(=Nc2ccc(F)cc2)SC1`: 12.6 µM; for `O=c1c(Cl)c(Cl)cnn1-c1ccccc1`: 1.41 µM; for `O=S(=O)(Nc1ccc(N=Nc2ccc(O)c3ccccc23)cc1)c1ccccc1`: 22 µM.

With `CCn1c(SCc2nc3scc(-c4ccccc4)c3c(=O)[nH]2)nnc1-c1cccs1`, the EC50 was 46.6 µM. Regarding `NC1=NC[C@H](c2ccccc2)N1CCCCC1CCCCC1`, the EC50 is 5.06 µM. For the compound `CCn1cc(C(=O)O)c(=O)c2cc(F)c(N3CCN(C(=S)NC(=O)c4c(OC)cccc4OC)CC3)cc21`, the EC50 is 43.5 µM. The same measure for `Cc1ccc(Nc2cc(C)c3ccc(O)cc3n2)cc1C`: 17 µM. The same measure for `Cc1ccccc1Cn1c(=N)n(CC(=O)c2ccco2)c2ccccc21`: 22.8 µM. The same measure for `CC(=O)NC(c1ccc2ccccc2c1)c1ccc2cccnc2c1O` (stereo not given): 0.24 µM; for `NC(N)=NN=C1CCCCCCCCCCC1`: 7.67 µM; for `O=[N+]([O-])c1cc(Cl)c2cccnc2c1O`: 27.7 µM. Turning to `Cc1cc(C)cc(OC(=O)CS(=O)c2ccc(C(F)(F)F)cc2[N+](=O)[O-])c1` (stereo not given), the EC50 is 5.98 µM.

On to `O=C(Nc1ccc(O)cc1)c1cc2n(n1)C(C(F)(F)F)CC(c1ccco1)N2` (stereo not given), for which the EC50 was 11.9 µM. The same measure for `Oc1ccc(C=Nc2ccc3ncccc3c2)c(O)c1`: 14.2 µM; for `CCOC(=O)C[n+]1c(C)sc2ccc(OC)cc21`: 25.8 µM; for `O=C(/C=C/c1ccco1)Oc1cc(Br)cc(/C=N/NC(=O)c2ccccc2O)c1`: 0.35 µM. To `OC(COc1ccc2ccccc2c1Br)Cn1ccnc1` (stereo not given) belongs 43.9 µM; to `O=C(NCc1ccco1)c1cccc(Nc2nc3ccc(Br)cc3[nH]2)c1`, 44.6 µM; to `O=C(Oc1c(Cl)cc(Cl)c2cccnc12)c1ccco1`, 11.5 µM. The same measure for `CN1CCc2c(sc(NC(=O)c3ccc([N+](=O)[O-])o3)c2C(N)=O)C1`: 0.61 µM.

For the compound `Oc1c(I)cc(Cl)c2cccnc12`, the EC50 is 14.4 µM. To `C/C(=N/Nc1nc(-c2ccccc2)cc(-c2ccc(F)cc2)n1)c1cccc(N)c1` belongs 18.1 µM.

Turning to `O=C(Nc1ccc(S(=O)(=O)N2CCCC2)cc1)c1ccc(CN2CCc3ccccc3C2)cc1`, the EC50 was 26.5 µM. Take `Oc1cccc(/C=N/Nc2ccc(Cl)nn2)c1O`: the EC50 is 0.66 µM.

Regarding `Cc1c2ccncc2c(C)c2c1[nH]c1ccccc12`, the EC50 was 2.53 µM. With `c1ccc2c(c1)Sc1ccccc1N2CC1CN2CCC1CC2` (stereo not given), the EC50 was 7.93 µM. To `CCCCCOc1ccc(CSC(=N)N)cc1[N+](=O)[O-]` belongs 7.91 µM; to `CC(=O)n1cc(/C=N/NC(=O)c2sc(C)nc2C)c2ccccc21`, 11.6 µM.

`CCCCCCCCCCCCCCCC[N+](C)(C)CC`: the EC50 is 0.7 µM. To `Cc1ccc(N=Nc2ccc(O)c(/C=N\NC(=O)c3ccc(N)cc3)c2)cc1C` belongs 3.29 µM; to `Oc1cccc(Nc2nc(NCC3CCCO3)c3ccccc3n2)c1` (stereo not given), 2.26 µM; to `CC(C)CCNCC(O)CON=C1c2ccccc2-c2ccccc21` (stereo not given), 10.2 µM. The same measure for `Cc1ccccc1OCCCCCn1ccnc1`: 24.4 µM; for `NNC(=O)c1cc2ccccc2cc1O`: 11.9 µM; for `CNc1nc(-c2ccccn2)nnc1-c1ccccc1`: 8.38 µM. `Clc1ccc(OCCCNCc2ccccc2)c(Br)c1`: the EC50 was 11.5 µM.

With `CNC[C@H](CC1CCCCC1)NC[C@H](Cc1ccccc1)NCCC12CC3CC(CC(C3)C1)C2`, the EC50 was 3.28 µM. Take `O=C(N/N=C/C1CC=CCC1)c1ccc(Cl)cc1O` (stereo not given): the concentration for a half-maximal effect (EC50) was 26.4 µM. In the case of `N=c1n(Cc2ccccc2)c2ccccc2n1CC(O)COc1ccc(Cl)cc1Cl` (stereo not given), the EC50 is 2.91 µM. As to `NC1=NC(=Nc2cccc(Cl)c2)c2ccccc21`, the EC50 was 32.4 µM. Consider `CC[n+]1c(/C=C/N(C)c2ccccc2)n(-c2ccccc2)c2ccc(-c3nc4ccccc4s3)cc21`, for which the EC50 was 0.46 µM. The same measure for `CCCC(=O)NC(c1ccc(N(C)C)cc1)c1ccc2cccnc2c1O` (stereo not given): 0.61 µM.

Regarding `CC(CO)(CO)NCc1ccc(-c2ccccc2)cc1`, the EC50 was 15 µM.

In the case of `O=C1c2ccccc2NC(c2ccc(-c3cccc([N+](=O)[O-])c3)o2)N1O` (stereo not given), the EC50 was 6.61 µM. To `Cc1ccnc(NC(c2cccnc2)c2ccc3cccnc3c2O)c1` (stereo not given) belongs 12 µM. The same measure for `Oc1ccc(CN2CCN(Cc3ccccc3)CC2)c2cccnc12`: 12.9 µM. The same measure for `CCCCCCCCCC[n+]1cccc2c3ccccc3ccc21`: 0.6 µM. With `COc1ccc(-n2c(CNc3ccc(C)cc3)nnc2SCc2ccccc2)cc1`, the EC50 is 33.3 µM.

Take `CCCCCCCCn1c2c(c(=N)c3ccccc31)CCC2`: the concentration giving a half-maximal response (EC50) is 0.98 µM. The same measure for `Cc1sc2ncnc(N/N=C/c3ccccc3O)c2c1C`: 0.51 µM; for `CN(C)S(=O)(=O)c1cccc(NC(=S)N/N=C/c2cc(Br)ccc2O)c1`: 0.65 µM; for `CCOc1cc(/C=C2/NC(=O)N(CC(=O)Nc3cccc(C)c3)C2=O)ccc1OC`: 30.8 µM. The same measure for `CCOc1ccc2c(c1)nc(SCC(=O)c1ccc(Br)s1)n2C`: 47.3 µM. The same measure for `CCCCC(CC)CN=C(N)NC(N)=NCCCCCCN=C(N)NC(N)=NCC(CC)CCCC` (stereo not given): 1.9 µM; for `O=C1c2ccccc2-c2onc3ccc(NCc4ccco4)c1c23`: 17.9 µM; for `O=C(Nc1ccccc1)Nc1ncc([N+](=O)[O-])s1`: 15.8 µM. For `CCCCCCCOC(=O)C[N+](C)(C)CCOC1CC2CCC1(C)C2(C)C` (stereo not given), the EC50 is 2.07 µM. The same measure for `C=CCc1ccccc1OCC(O)CN1CCN(CCN2C(=O)c3cccc4cccc(c34)C2=O)CC1` (stereo not given): 16.8 µM; for `CCOC(=O)CSc1n[nH]c(NC(=O)c2cccc(C)c2)n1`: 48.7 µM; for `NC1=NC[C@H](Cc2ccccc2)N1CCCCC1CCCCC1`: 3.71 µM.

Regarding `COc1cccc(/C=N\NC(=O)Cn2nnc3ccccc32)c1O`, the EC50 was 10.9 µM. To `O=Nc1ccc(O)c2ncccc12` belongs 1.77 µM. As to `CC(C)(C)c1nn(-c2ccccc2)c2[nH]c(=O)c(CNCc3ccco3)cc12`, the EC50 is 49.6 µM. To `O=C(N/N=C/c1cc([N+](=O)[O-])ccc1O)c1ccncc1` belongs 15.1 µM. To `Cc1ccc(C)c(-c2nc3ccc(N)cc3[nH]2)c1` belongs 10.5 µM; to `O=C(Cc1c[nH]c2ccccc12)N/N=C/c1ccccc1O`, 16.2 µM. To `CC(C)NCCCOc1ccc(Cl)cc1Br` belongs 44.7 µM; to `CCN(CC)c1ccc(S(=O)(=O)Nc2cc(Cl)ccc2Cl)cc1NC(=S)NC(=O)C1CCCC1`, 40 µM; to `O=C(NCCCc1ccccc1)Nc1cccc(Cl)c1`, 37 µM. As for `N=c1n(Cc2ccc(Cl)cc2)c2ccccc2n1CC(O)c1ccco1` (stereo not given), the EC50 is 11.8 µM. As to `Cc1ccc(-c2cc(-c3ccc(Cl)cc3)c(C#N)c(N)n2)o1`, the EC50 was 26.2 µM. The same measure for `O=C(C[n+]1cc(-c2ccccc2)n2c1CCCCC2)c1ccc(Cl)cc1`: 28.9 µM; for `COc1ccccc1-c1cc(C(=O)Nc2cc(C)nn2-c2ccccc2)no1`: 25.6 µM. The same measure for `C[C@H]1c2cccc(O)c2C(O)=C2C(=O)C3(O)C(O)=C(C(N)=O)C(=O)[C@@H](N(C)C)[C@@H]3[C@@H](O)[C@@H]21` (stereo not given in full): 34.4 µM; for `CSc1ccc2c(c1)C(N1CCN(C)CC1)Cc1ccccc1S2` (stereo not given): 10.6 µM; for `CCc1ccc(Nc2nc(N)nc(CSc3nc4ccccc4s3)n2)cc1`: 33.8 µM. The same measure for `COc1ccc(C(C[N+](=O)[O-])n2nc(C)cc2C)cc1` (stereo not given): 10.1 µM. `CCn1c(C)cc(=S)c2ccccc21`: the EC50 was 48.2 µM. The same measure for `O=C(O)C1Nc2c(O)cccc2C2C=CCC12` (stereo not given): 22.6 µM; for `O=C1c2ccccc2C(=O)c2[nH]c(=O)[nH]c21`: 4.83 µM; for `Cc1ccccc1OCCSCc1nc2ccccc2[nH]1`: 30.4 µM.

As for `Nc1ccc(Nc2ccccc2)cc1`, the EC50 is 11.6 µM.

Take `O=S(=O)(/N=C(/Nc1cccc2ccccc12)c1ccccc1)c1cccs1`: the EC50 was 28.9 µM. To `COc1ccccc1N1CCN(c2ccc(-c3ccccc3)nn2)CC1` belongs 2.61 µM; to `O=C(NC(c1ccc(Cl)cc1)c1c(O)ccc2ccccc12)c1ccccc1` (stereo not given), 8.91 µM. To `CCCCCCCCOC(=O)C1=C(C)Nc2nnnn2C1c1cccs1` (stereo not given) belongs 21.8 µM.

On to `O=C(CCN1CCc2ccccc2C(c2ccccc2)C1)c1ccc2c(c1)OCCO2` (stereo not given), for which the EC50 is 18 µM. On to `O=C(NCCN1CCOCC1)c1ccc2ccccc2c1`, for which the EC50 was less than 0.1 µM.

On to `N=c1n(CCO)c2ccccc2n1Cc1ccc(Cl)cc1`, for which the EC50 is 41.1 µM.

For `Cc1[nH]c2ccccc2c1C(=O)COC(=O)c1ccc([N+](=O)[O-])s1`, the EC50 was 47.5 µM. Take `NNC(=O)CNC(c1ccccc1)c1cc(Br)ccc1NC(=O)c1ccc(Br)cc1` (stereo not given): the EC50 was 39.5 µM. To `COc1ccccc1Nc1nc(NCc2ccco2)c2ccccc2n1` belongs 16.2 µM; to `CC1=C(C(=O)OCC2CCCO2)C(c2cccc(C(F)(F)F)c2)C2=C(CC(c3ccco3)CC2=O)N1` (stereo not given), 42.7 µM.
